Source: patent publication US6194434A, “Cycloalkylaminomethylpyrrolidine derivatives” (Daiichi Pharmaceutical Co., Ltd., priority 1996, dated 2001)
≈ marks a conversion by molar mass, not a printed value. Read-outs that look alike come from different tables or passages of the source.

Assays:
Experiment in all cases: Antimicrobial activity (MIC), standard method of the Japan Chemotherapeutic Society
Format in all cases: cell-based
S. epidermidis, 56500 = system: S. epidermidis, 56500
Excerpt: (§1) The antimicrobial activity of the compounds obtained in Examples 1 to 3 was examined in accordance with the standard method specified by the Japan Chemotherapeutic Society.

Pr. vulgaris, 08601 = system: Pr. vulgaris, 08601
Excerpt: as §1

S. aureaus, 870307 = system: S. aureaus, 870307
Excerpt: as §1

Str. pyrogenes, G-36 = system: Str. pyrogenes, G-36
Excerpt: as §1

S. aureus, 209P = system: S. aureus, 209P
Excerpt: as §1

Ps. aeruginosa, 32121 = system: Ps. aeruginosa, 32121
Excerpt: as §1

Ser. marcescens, 10100 = system: Ser. marcescens, 10100
Excerpt: as §1

[1] = system: Ps. maltophilia, IID-1275
Excerpt: as §1

[2] = system: Str. faecalis, ATCC-19433
Excerpt: as §1

Ps. aeruginosa, 32104 = system: Ps. aeruginosa, 32104
Excerpt: as §1

S. flexneli, 2A 5503 = system: S. flexneli, 2A 5503
Excerpt: as §1

E. coli, NIHJ = system: E. coli, NIHJ
Excerpt: as §1

Pr. mirabilis, IFO-3849 = system: Pr. mirabilis, IFO-3849
Excerpt: as §1

[3] = Pseudomonas aeruginosa, read-out: MIC

Row | SMILES | MIC (S. epidermidis, 56500) [µg/mL] | MIC (Pr. vulgaris, 08601) [µg/mL] | MIC (S. aureaus, 870307) [µg/mL] | MIC (Str. pyrogenes, G-36) [µg/mL] | MIC (S. aureus, 209P) [µg/mL] | MIC (Ps. aeruginosa, 32121) [µg/mL] | MIC (Ser. marcescens, 10100) [µg/mL] | MIC [1] [µg/mL] | MIC [2] [µg/mL] | MIC (Ps. aeruginosa, 32104) [µg/mL] | MIC (S. flexneli, 2A 5503; S. flexneli, 2A 5503) [µg/mL] | MIC (E. coli, NIHJ) [µg/mL] | MIC (Pr. mirabilis, IFO-3849) [µg/mL] | other results
1 | Cc1c(N2CC[C@H](CNC3CC3)C2)c(F)cc2c(=O)c(C(=O)O)cn([C@@H]3C[C@@H]3F)c12 [Example 1, 7-[3-(R)-Cyclopropylaminomethyl-1-pyrrolidinyl]-6-fluoro-1-[(1R,2S)-2-fluorocyclopropyl]-1,4-dihydro-8-methyl-4-oxoquinoline-3-carboxylic Acid] |  |  |  |  |  |  |  |  |  |  |  |  |  | MIC (S. epidermidis, 56500; Staphylococcus epidermidis, read-out: MIC): 0.013 µg/mL (≈ 0.0311 µM); MIC (Pr. vulgaris, 08601; Proteus vulgaris, read-out: MIC): 0.006 µg/mL (≈ 0.0144 µM); MIC (S. aureaus, 870307; read-out: MIC): 0.025 µg/mL (≈ 0.0599 µM); MIC (Str. pyrogenes, G-36; read-out: MIC): 0.013 µg/mL (≈ 0.0311 µM); MIC (S. aureus, 209P; Staphylococcus aureus, read-out: MIC): ≤ 0.003 µg/mL; MIC (Ps. aeruginosa, 32121; [3]): 0.1 µg/mL (≈ 0.24 µM); MIC (Ser. marcescens, 10100; Serratia marcescens, read-out: MIC): 0.1 µg/mL (≈ 0.24 µM); MIC ([1]; Stenotrophomonas maltophilia, IID1275, read-out: MIC): 0.05 µg/mL (≈ 0.12 µM); MIC ([2]; Enterococcus faecalis, ATCC19433, read-out: MIC): 0.025 µg/mL (≈ 0.0599 µM); MIC (Ps. aeruginosa, 32104; [3]): 0.2 µg/mL (≈ 0.479 µM); MIC (S. flexneli, 2A 5503): 0.006 µg/mL (≈ 0.0144 µM); MIC (E. coli, NIHJ; Escherichia coli, read-out: MIC): ≤ 0.003 µg/mL; MIC (Pr. mirabilis, IFO-3849; Proteus mirabilis, IFO3849, read-out: MIC): 0.025 µg/mL (≈ 0.0599 µM)
2 | COc1c(N2CC[C@H](CNC3CC3)C2)c(F)c(N)c2c(=O)c(C(=O)O)cn([C@@H]3C[C@@H]3F)c12 [Example 2, 5-Amino-7-[3-(R)-(N-cyclopropylaminomethyl)-1-pyrrolidinyl]-6-fluoro-1-[(1R,2S)-2-fluorocyclopropyl]-1,4-dihydro-8-methoxy-4-oxocquinoline-3-carboxylic Acid] | 0.013 (≈ 0.029 µM) | 0.10 (≈ 0.223 µM) | 0.05 (≈ 0.111 µM) | 0.025 (≈ 0.0557 µM) | ≤ 0.003 | 0.78 (≈ 1.74 µM) | 0.39 (≈ 0.87 µM) | 0.20 (≈ 0.446 µM) | 0.10 (≈ 0.223 µM) | 0.78 (≈ 1.74 µM) | 0.013 (≈ 0.029 µM) | 0.006 (≈ 0.0134 µM) | 0.20 (≈ 0.446 µM) | 
3 | Cc1c(N2CC[C@H](CNC3CC3)C2)c(F)c(N)c2c(=O)c(C(=O)O)cn([C@@H]3C[C@@H]3F)c12.Cl [Example 3, 5-Amino-7-[(3R)-N-cyclopropylaminomethyl-1-pyrrolidinyl]-6-fluoro-1-[(1R,2S)-2-fluorocyclopropyl]-1,4-dihydro-8-methyl-4-oxoquinoline-3-carboxylic Acid Hydrochloride] | 0.006 | 0.05 | 0.025 | 0.013 | ≤ 0.003 | 0.20 | 0.20 | 0.10 | 0.05 | 0.39 | 0.006 | 0.006 | 0.10 | 
